These results are taken from article PMC7588595, “Small-molecule active pharmaceutical ingredients of approved cancer therapeutics inhibit human aspartate/asparagine-β-hydroxylase” (Bioorganic & Medicinal Chemistry, 2020).

Structures can show the parent of a compound that is named as a salt. Where two headings read alike, the source gives them in different places.

In the test the target is T1, human AspH (His6-AspH315–758) (Homo sapiens, UniProt Q12797).
T1 construct: N-Terminally His6-tagged human AspH315–758 (His6-AspH315–758) was produced in Escherichia coli BL21 (DE3) cells; made in house; host or cells: Escherichia coli BL21 (DE3), pET-28a(+) vector
T1 sequence (Q12797 315-758): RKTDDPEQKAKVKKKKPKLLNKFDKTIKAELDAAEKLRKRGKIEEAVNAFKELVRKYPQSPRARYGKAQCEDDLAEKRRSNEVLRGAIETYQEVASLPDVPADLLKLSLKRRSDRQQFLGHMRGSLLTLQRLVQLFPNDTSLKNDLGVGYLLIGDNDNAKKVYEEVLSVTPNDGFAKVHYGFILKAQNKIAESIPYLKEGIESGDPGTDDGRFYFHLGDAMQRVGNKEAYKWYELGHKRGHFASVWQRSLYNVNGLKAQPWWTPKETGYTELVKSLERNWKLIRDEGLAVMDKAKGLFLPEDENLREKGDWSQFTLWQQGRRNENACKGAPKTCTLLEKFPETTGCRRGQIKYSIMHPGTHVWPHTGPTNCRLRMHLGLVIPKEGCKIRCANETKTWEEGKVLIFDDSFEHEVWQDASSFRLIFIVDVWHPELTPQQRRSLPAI
The test is described as follows: SPE-MS AspH inhibition assay (hFX-CP101-119 substrate hydroxylation). The class given is biochemical.

Where [1] appears, read: AspH-inhibitor screening, 384-well Plate 1.
[2] abbreviates: AspH-inhibitor screening, 384-well Plate 1, substrate conversion.
[3] abbreviates: AspH-inhibitor screening, Plate 1-duplicate.
Where [4] appears, read: AspH-inhibitor screening, Plate 1-duplicate, substrate conversion.

As to `O=C1CCC(N2C(=O)c3ccccc3C2=O)C(=O)N1` (centres unmarked) [Thalidomide], the “Plate 1 (% inhibition)” value under setting [1] amounted to 3.16%. The “Plate 1 (% conversion)” value under setting [2] stood at 48.29%. For the same molecule, under setting [3], the “Plate 1-duplicate (% inhibition)” value was 1.43%. For the same molecule, the “Plate 1-duplicate (% conversion)” value under setting [4] is given as 51.33%.

For the molecule `CC(=O)O[C@H]1C(=O)[C@@]2(C)[C@H]([C@H](OC(=O)c3ccccc3)[C@]3(O)C[C@H](OC(=O)[C@H](O)[C@@H](NC(=O)c4ccccc4)c4ccccc4)C(C)=C1C3(C)C)[C@]1(OC(C)=O)CO[C@@H]1C[C@@H]2O` [Paclitaxel], the “Plate 1 (% inhibition)” value under setting [1] came to 6.60%. In addition, the “Plate 1 (% conversion)” value under setting [2] worked out at 46.70%. Also, the “Plate 1-duplicate (% inhibition)” value under setting [3] is -2.08%. The “Plate 1-duplicate (% conversion)” value under setting [4] was 53.08%.

Turning to `Cc1ccc([N+](=O)[O-])cc1S(=O)(=O)N(C)/N=C/c1cnc2ccc(Br)cn12.Cl` [PIK-75 HCl], under setting [1], the “Plate 1 (% inhibition)” value is -11.59%. Besides, the “Plate 1 (% conversion)” value under setting [2] was 55.10%. In addition, the “Plate 1-duplicate (% inhibition)” value under setting [3] is listed as -0.06%. For the same molecule, the “Plate 1-duplicate (% conversion)” value under setting [4] turned out to be 52.07%.

On to `CNC(=O)c1ccc(N2C(=S)N(c3ccc(C#N)c(C(F)(F)F)c3)C(=O)C23CCC3)cc1F` [RD162], for which the “Plate 1 (% inhibition)” value under setting [1] was -1.12%. Further, the “Plate 1 (% conversion)” value under setting [2] is reported as 50.27%. For the same molecule, the “Plate 1-duplicate (% inhibition)” value under setting [3] was -2.20%. Moreover, under setting [4], the “Plate 1-duplicate (% conversion)” value came out at 53.13%.

Take `CNNCc1ccc(C(=O)NC(C)C)cc1` [Procarbazine hydrochloride]: the “Plate 1 (% inhibition)” value under setting [1] is given as 0.24%. In addition, the “Plate 1 (% conversion)” value under setting [2] was 49.64%. In addition, the “Plate 1-duplicate (% inhibition)” value under setting [3] turned out to be 5.52%. Besides, under setting [4], the “Plate 1-duplicate (% conversion)” value was 49.30%.

For `CCN(CC)CCCC(C)Nc1ccnc2cc(Cl)ccc12` (centres unmarked) [Chloroquine diphosphate], the “Plate 1 (% conversion)” value came out at 43.64%, the “Plate 1 (% inhibition)” value amounted to 13.23%, the “Plate 1-duplicate (% conversion)” value amounted to 46.45% and the “Plate 1-duplicate (% inhibition)” value stood at 11.28%.

Turning to `O=C(O)C(=O)O.[NH-][C@@H]1CCCC[C@H]1[NH-].[Pt+2]` [Oxaliplatin], the “Plate 1 (% inhibition)” value under setting [1] amounted to 8.19%. Under setting [2], the “Plate 1 (% conversion)” value is 45.97%. Further, under setting [3], the “Plate 1-duplicate (% inhibition)” value worked out at 11.28%. In addition, under setting [4], the “Plate 1-duplicate (% conversion)” value was determined as 46.45%.

For `CN1CCN(c2nc(C3=C(c4c[nH]c5ccccc45)C(=O)NC3=O)c3ccccc3n2)CC1` [Sotrastaurin], under setting [1], the “Plate 1 (% inhibition)” value worked out at 20.56%. Further, the “Plate 1 (% conversion)” value under setting [2] was determined as 40.26%. In addition, the “Plate 1-duplicate (% inhibition)” value under setting [3] amounted to 11.48%. Moreover, the “Plate 1-duplicate (% conversion)” value under setting [4] came to 46.35%.

Regarding `C=CCNC1=C2C[C@@H](C)C[C@H](OC)[C@H](O)[C@@H](C)/C=C(\C)[C@H](OC(N)=O)[C@@H](OC)/C=C\C=C(/C)C(=O)NC(=CC1=O)C2=O` [17-AAG (Tanespimycin, Geldanamycin)], the “Plate 1 (% inhibition)” value under setting [1] was -8.89%. Besides, under setting [2], the “Plate 1 (% conversion)” value came to 53.86%. For the same molecule, the “Plate 1-duplicate (% inhibition)” value under setting [3] is listed as -13.53%. The “Plate 1-duplicate (% conversion)” value under setting [4] is reported as 58.75%.

Regarding `Cc1c(C(=O)Nc2ccc(N3C[C@@H](C)O[C@@H](C)C3)nc2)cccc1-c1ccc(OC(F)(F)F)cc1.O=P(O)(O)O.O=P(O)(O)O` [NVP-LDE225 (Diphosphate salt)], the “Plate 1 (% inhibition)” value under setting [1] was -20.13%. For the same molecule, the “Plate 1 (% conversion)” value under setting [2] turned out to be 59.05%. Further, under setting [3], the “Plate 1-duplicate (% inhibition)” value is reported as -19.69%. The “Plate 1-duplicate (% conversion)” value under setting [4] worked out at 61.81%.

Turning to `C[C@@H](C(=O)O)c1ccc(-c2ccccc2)c(F)c1` [(R)-Flurbiprofen (Tarenflurbil)], the “Plate 1 (% inhibition)” value under setting [1] was determined as 10.59%. The “Plate 1 (% conversion)” value under setting [2] came out at 44.86%. For the same molecule, the “Plate 1-duplicate (% inhibition)” value under setting [3] was found to be 16.18%. Besides, the “Plate 1-duplicate (% conversion)” value under setting [4] is given as 44.01%.

For the molecule `CS(=O)(=O)c1ccc(C2=C(c3ccccc3)C(=O)OC2)cc1` [Rofecoxib (Vioxx)], the “Plate 1 (% inhibition)” value under setting [1] stood at 0.07%. Under setting [2], the “Plate 1 (% conversion)” value is recorded as 49.72%. For the same molecule, under setting [3], the “Plate 1-duplicate (% inhibition)” value is reported as 2.99%. For the same molecule, the “Plate 1-duplicate (% conversion)” value under setting [4] came out at 50.56%.

As for `Nc1ncn([C@H]2C[C@H](O)[C@@H](CO)O2)c(=O)n1` [Decitabine (Dacogen)], under setting [1], the “Plate 1 (% inhibition)” value is reported as 4.17%. Moreover, under setting [2], the “Plate 1 (% conversion)” value came to 47.83%. The “Plate 1-duplicate (% inhibition)” value under setting [3] was 0.31%. In addition, under setting [4], the “Plate 1-duplicate (% conversion)” value was found to be 51.89%.

`CN1CCC(COc2cnc(-c3cccc(Cn4nc(-c5cccc(C#N)c5)ccc4=O)c3)nc2)CC1` [EMD1214063]: under setting [1], the “Plate 1 (% inhibition)” value is on record as 3.55%. Besides, the “Plate 1 (% conversion)” value under setting [2] turned out to be 48.11%. The “Plate 1-duplicate (% inhibition)” value under setting [3] amounted to 3.19%. Under setting [4], the “Plate 1-duplicate (% conversion)” value worked out at 50.46%.

Turning to `Cn1cc(CNCC2CCN(c3ncc(C(=O)NO)cn3)CC2)c2ccccc21` [JNJ-26481585_Quisinostat], under setting [1], the “Plate 1 (% inhibition)” value is reported as -7.35%. The “Plate 1 (% conversion)” value under setting [2] stood at 53.15%. Under setting [3], the “Plate 1-duplicate (% inhibition)” value is -6.18%. For the same molecule, under setting [4], the “Plate 1-duplicate (% conversion)” value worked out at 55.11%.

As for `Cc1cnc(NC(=O)Nc2cc(Br)c(C)cc2OC[C@@H]2CNCCO2)cn1` [LY2603618_Rabusertib], the “Plate 1 (% inhibition)” value under setting [1] was -51.46%. In addition, under setting [2], the “Plate 1 (% conversion)” value is 73.51%. Moreover, the “Plate 1-duplicate (% inhibition)” value under setting [3] is listed as -47.27%. In addition, the “Plate 1-duplicate (% conversion)” value under setting [4] worked out at 75.48%.

Take `COc1cccc2cc(-c3nc([C@H]4CC[C@H](C(=O)O)CC4)n4ncnc(N)c34)[nH]c12` [OSI-027]: under setting [1], the “Plate 1 (% inhibition)” value was -4.91%. In addition, under setting [2], the “Plate 1 (% conversion)” value worked out at 52.02%. Moreover, the “Plate 1-duplicate (% inhibition)” value under setting [3] is -2.62%. For the same molecule, the “Plate 1-duplicate (% conversion)” value under setting [4] is listed as 53.34%.

For AT 101, the “Plate 1 (% inhibition)” value under setting [1] is 102.80%. The “Plate 1 (% conversion)” value under setting [2] worked out at 2.28%. Under setting [3], the “Plate 1-duplicate (% inhibition)” value worked out at 99.60%. Under setting [4], the “Plate 1-duplicate (% conversion)” value turned out to be 2.64%.

Consider `Nc1nc(Cl)nc2c1ncn2[C@H]1C[C@H](O)[C@@H](CO)O1` [Cladribine], for which the “Plate 1 (% inhibition)” value under setting [1] was determined as 3.47%. In addition, the “Plate 1 (% conversion)” value under setting [2] is reported as 48.15%. Also, under setting [3], the “Plate 1-duplicate (% inhibition)” value was found to be 3.70%. The “Plate 1-duplicate (% conversion)” value under setting [4] came to 50.21%.

For the molecule `CC(C)C[C@H](NC(=O)[C@H](CCc1ccccc1)NC(=O)CN1CCOCC1)C(=O)N[C@@H](Cc1ccccc1)C(=O)N[C@@H](CC(C)C)C(=O)[C@@]1(C)CO1` [Carfilzomib], the “Plate 1 (% inhibition)” value under setting [1] is on record as -2.16%. Also, the “Plate 1 (% conversion)” value under setting [2] turned out to be 50.75%. Further, the “Plate 1-duplicate (% inhibition)” value under setting [3] is -9.02%. Under setting [4], the “Plate 1-duplicate (% conversion)” value was 56.51%.

As for `COc1nc(N)nc2c1ncn2[C@@H]1O[C@H](CO)[C@@H](O)[C@@H]1O` [Nelarabine], under setting [1], the “Plate 1 (% inhibition)” value is listed as -1.21%. Under setting [2], the “Plate 1 (% conversion)” value is on record as 50.31%. The “Plate 1-duplicate (% inhibition)” value under setting [3] came out at 1.44%. Further, under setting [4], the “Plate 1-duplicate (% conversion)” value is 51.33%.

Regarding Bleomycin sulfate, the “Plate 1 (% inhibition)” value under setting [1] is listed as 98.37%. Further, the “Plate 1 (% conversion)” value under setting [2] is reported as 4.32%. Moreover, the “Plate 1-duplicate (% inhibition)” value under setting [3] was 96.60%. Under setting [4], the “Plate 1-duplicate (% conversion)” value amounted to 4.13%.

For the molecule `Nc1nc(OCc2cc(Br)cs2)c2[nH]cnc2n1` [Lomeguatrib], under setting [1], the “Plate 1 (% inhibition)” value worked out at 5.31%. Also, the “Plate 1 (% conversion)” value under setting [2] worked out at 47.30%. The “Plate 1-duplicate (% inhibition)” value under setting [3] worked out at 8.11%. Also, under setting [4], the “Plate 1-duplicate (% conversion)” value was determined as 48.02%.

Consider `Oc1nc(-c2ccc(C(F)(F)F)cc2)nc2c1CSCC2` [XAV-939], for which the “Plate 1 (% inhibition)” value under setting [1] is 0.04%. The “Plate 1 (% conversion)” value under setting [2] was 49.73%. The “Plate 1-duplicate (% inhibition)” value under setting [3] is listed as 0.58%. In addition, the “Plate 1-duplicate (% conversion)” value under setting [4] worked out at 51.75%.

As to `CC(C)(C)Cn1c(N)nc2ccc(-c3[nH]c(C(C)(C)C)nc3-c3ccc(F)cc3)nc21` [LY2228820 (CP868569)], under setting [1], the “Plate 1 (% inhibition)” value is -13.39%. Besides, the “Plate 1 (% conversion)” value under setting [2] is reported as 55.93%. For the same molecule, the “Plate 1-duplicate (% inhibition)” value under setting [3] is -13.16%. The “Plate 1-duplicate (% conversion)” value under setting [4] is on record as 58.57%.

With `O=C(Nc1c[nH]nc1-c1nc2ccc(CN3CCOCC3)cc2[nH]1)NC1CC1` [AT9283], under setting [1], the “Plate 1 (% inhibition)” value is -0.09%. Also, the “Plate 1 (% conversion)” value under setting [2] is 49.79%. Besides, the “Plate 1-duplicate (% inhibition)” value under setting [3] stood at 2.46%. Besides, the “Plate 1-duplicate (% conversion)” value under setting [4] came out at 50.82%.
